The source of these data is article PMC11042424, “Development of a First-in-Class RIPK1 Degrader to Enhance Antitumor Immunity” (Research Square, 2024).

The target of one data set is T1, GST-tagged human RIPK1 (Homo sapiens, UniProt Q13546).
T1 construct: purchased SignalChem R07–11G-10
T1 sequence (Q13546 1-327 limits assumed): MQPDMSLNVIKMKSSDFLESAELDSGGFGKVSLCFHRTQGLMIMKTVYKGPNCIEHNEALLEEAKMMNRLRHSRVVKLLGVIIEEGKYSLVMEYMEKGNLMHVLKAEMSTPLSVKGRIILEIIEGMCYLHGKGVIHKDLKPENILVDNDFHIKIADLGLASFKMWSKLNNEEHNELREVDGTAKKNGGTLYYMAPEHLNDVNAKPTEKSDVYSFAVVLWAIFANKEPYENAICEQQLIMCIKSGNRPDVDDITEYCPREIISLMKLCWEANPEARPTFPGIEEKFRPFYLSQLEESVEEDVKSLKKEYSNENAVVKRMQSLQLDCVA
Kind of data set: TR-FRET biochemical binding assay for RIPK1. The procedure:
Figure 2 LD4172, a RIPK1 PROTAC, induces potent and highly specific degradation of RIPK1 in a panel of cell lines. A, Chemical structures of RIPK1 PROTAC, LD4172, and its negative control, LD4172-NC. […] B, Quantification of RIPK1 levels in both Jurkat and B16F10 cells treated with LD4172 at indicated concentrations for 24 h, followed by Western blotting. C, DC50 and Dmax of LD4172 in various human and mouse cell lines. DC50, the drug concentration causing 50% protein degradation; Dmax, the maximum level of protein degradation. D, RIPK1 degradation kinetics induced by LD4172 treatment (1 μM) and resynthesis kinetics upon washout of LD4172 in both Jurkat and B16F10 cells. […] G, Time-resolved fluorescence resonance energy transfer (TR-FRET) based biochemical binding assay for RIPK1. […] In total, ~10,000 proteins were quantified in the proteomics experiment. […]
A time-resolved fluorescence resonance energy transfer (TR-FRET) assay was performed to evaluate the binding of the indicated compounds and RIPK1 by competition with a BODIPY-FL labeled RIPK1 tracer (Supplementary Information, T2I-488). […] The assay mixtures were incubated at room temperature in the dark for 120 min, and the signals were collected using a BioTek Synergy H1 microplate reader to measure the fluorescence emission ratio (I520 nm/I490 nm) of each well using a 340-nm excitation filter, a 100-μs delay, and a 200-μs integration time. […]

Data set [1] is described as follows: Stability in mouse liver S9 fractions. Type of data set: in vitro ADME.

On to `Cc1ncsc1-c1ccc([C@H](C)NC(=O)[C@@H]2C[C@@H](O)CN2C(=O)[C@@H](NC(=O)CCCCCCCCCCC(=O)NCCCn2cc(-c3ccc4c(c3)CCN4C(=O)Cc3cccc(OC(F)(F)F)c3)c3c(N)ncnc32)C(C)(C)C)cc1` [LD4172], for which the IC50 on GST-tagged human RIPK1 (2 hours incubation, n=3, read-out: IC50, Fig. 2G) amounted to 9.6 nM. The Ki on GST-tagged human RIPK1 (recombinant human RIPK1 protein) was determined as 4.8 nM. Further, in data set [1], the half-life came to 9.7 min and the “intrinsic clearance (CLint)” value is listed as 71.6 μL·min^− 1·mg^− 1 protein.
